Here are results for 4 compounds from ChEMBL document CHEMBL4402596, “Pyridine-Embedded Phenothiazinium Dyes as Lysosome-Targeted Photosensitizers for Highly Efficient Photodynamic Antitumor Therapy” (J Med Chem, 2020).

Calls of active or inactive are those of the source. No cut-off for these calls is given here.

Series [1] in a line: Photostability of compound assessed as decrease in rate of photo decomposition at 5 uM irradiated with LED light (630 nm, 106 mW cm'-2) upto 12 mins by UV spectrophotometry.
Series [2] is described as follows: Induction of singlet oxygen generation in EtOH assessed as singlet oxygen quantum yield irradiated with 12.8 J light for 2 mins by DPBF-based assay. It counts as functional.
In series [3] the test system is A549. Nature of the series: Cytotoxicity against human A549 cells assessed as reduction in cell viability incubated for 1 hr followed by light irradiation at 3.2 J/cm2 for 30 sec and measured after 24 hrs by MTT assay. It counts as functional, cell-based. The settings on record: A549, light or radiation study. (In general: Tetrazolium dyes change colour on reduction, which living cells bring about.)

In series [4] the test system is A549. The series can be described thus: Cytotoxicity against human A549 cells assessed as reduction in cell viability incubated for 24 hrs in dark by MTT assay. It counts as cell-based. The settings on record: A549, 24 h.
Series [5] has as its system MCF7. Nature of the series: Cytotoxicity against human MCF7 cells assessed as reduction in cell viability incubated for 1 hr followed by light irradiation for 30 sec at 3.2 J/cm2 and measured after 24 hrs by MTT assay. It counts as functional, cell-based. Particulars: MCF7, light or radiation study.
Series [6] relates to MCF7. Nature of the series: Cytotoxicity against human MCF7 cells assessed as reduction in cell viability incubated for 24 hrs in dark by MTT assay. It counts as cell-based. Particulars: MCF7, 24 h.
Series [7] has as its system HT-29. Nature of the series: Cytotoxicity against human HT-29 cells assessed as reduction in cell viability preincubated for 1 hr followed by light irradiation at 3.2 J/cm2 for 30 sec and measured after 24 hrs by MTT assay. It is filed as functional, cell-based. Particulars: HT-29, light or radiation study.
In series [8] the test system is HT-29. The series can be described thus: Cytotoxicity against human HT-29 cells assessed as reduction in cell viability incubated for 24 hrs in dark by MTT assay. It is filed as cell-based. The settings on record: HT-29, 24 h.
Series [9] concerns A549. Nature of the series: Ratio of IC50 for cytotoxicity against human A549 cells in dark to IC50 for cytotoxicity against human A549 cells in light at 3.2J/cm2.
Series [10] concerns MCF7. Nature of the series: Ratio of IC50 for cytotoxicity against human MCF7 cells in dark to IC50 for cytotoxicity against human MCF7 cells in light at 3.2J/cm2.
The subject of series [11] is HT-29. Nature of the series: Ratio of IC50 for cytotoxicity against human HT-29 cells in dark to IC50 for cytotoxicity against human HT-29 cells in light at 3.2J/cm2.
In series [12] the test system is HT-29. Nature of the series: Induction of ROS generation in human HT-29 cells at 0.5 uM incubated for 0.5 hrs followed by DCFH-DA addition for 0.5 hrs then irradiated with light for 30 sec and measured after 15 mins by flow cytometry. It is filed as functional, cell-based.
The nature of series [13]: Drug localization in lysosome of human HT-29 cells at 0.5 uM measured after 1 hr in dark by Lyso-tracker based confocal laser scanning microscopy. It counts as ADME, subcellular. The settings on record: ht-29, 1 h.
Series [14] relates to HT-29. Nature of the series: Cytotoxicity against human HT-29 cells assessed as reduction in cell viability preincubated for 1 hr followed by light irradiation at 3.2 J/cm2 for 10 to 180 secs and measured after 24 hrs by MTT assay. It counts as functional, cell-based.
A short description of series [15]: Drug uptake in nucleus of human HT-29 cells at 0.5 uM incubated for 5 hrs by Hoechst 33342 staining based fluorescence microscopy. It counts as ADME, cell-based. Particulars: ht-29, 5 h.
The test system of series [16] is HT-29. Nature of the series: Potency index, ratio of IC50 of methylene blue to IC50 of compound for cytotoxicity against human HT-29 cells assessed as reduction in cell viability incubated for 1 hr followed by light irradiation at 3.2 J/cm2 for 30 sec and measured after 24 hrs by MTT assay. It is filed as functional.
The test system of series [17] is WI-38. Nature of the series: Cytotoxicity against human WI38 cells assessed as reduction in cell viability incubated for 24 hrs in dark by MTT assay. It is filed as cell-based. Particulars: WI-38, 24 h.
Series [18] is described as follows: Drug localization in lysosome of human WI38 cells at 0.5 uM measured after 1 hr by LAMP1-GFP based confocal laser scanning microscopy. It counts as ADME, subcellular. The settings on record: wi-38, 1 h.
Series [19] concerns HT-29. The series can be described thus: Induction of morphological changes in nucleus of human HT-29 cells at 0.5 uM incubated in dark for 1 hr followed by irradiated with LED light for 30 sec and measured after 18 hrs by Hoechst 33342 staining based fluorescence microscopy. It counts as functional, cell-based.
Series [20] has as its system HT-29. The series can be described thus: Induction of morphological changes in nucleus of human HT-29 cells at 0.5 uM incubated for 18 hrs in dark by Hoechst 33342 staining based fluorescence microscopy. The settings on record: ht-29, 18 h. It counts as cell-based.
Series [21] is described as follows: Drug localization in mitochondria of human WI38 cells at 0.5 uM measured after 1 hr by Mito-GFP based confocal laser scanning microscopy. It is filed as ADME. The settings on record: wi-38, 1 h.
Series [22] in a line: Drug localization in lysosome of human HT-29 cells at 0.5 uM measured after 1 hr by LAMP1-GFP based confocal laser scanning microscopy. It counts as ADME, subcellular. Particulars: ht-29, 1 h.
Series [23] is described as follows: Drug localization in mitochondria of human Ht-29 cells at 0.5 uM measured after 1 hr by Mito-GFP based confocal laser scanning microscopy. It is filed as ADME. The settings on record: ht-29, 1 h.
A short description of series [24]: AUC (0 to t) in Sprague-Dawley rat at 2 mg/kg, iv measured upto 24 hrs by fluorescence based assay. It counts as ADME, organism-based. Particulars: in vivo.
Series [25] in a line: AUC (0 to infinity) in Sprague-Dawley rat at 2 mg/kg, iv measured upto 24 hrs by fluorescence based assay. It is filed as ADME, organism-based. Also on record: dose 2 mg/kg, route intravenous, time infinity. The settings on record: in vivo.
Series [26] can be described thus: MRT (0 to infinity) in Sprague-Dawley rat at 2 mg/kg, iv measured upto 24 hrs by fluorescence based assay. It is filed as ADME, organism-based. Particulars: in vivo.
Series [27] is described as follows: Half life in Sprague-Dawley rat at 2 mg/kg, iv measured upto 24 hrs by fluorescence based assay. Particulars: in vivo. It counts as ADME, organism-based.
A short description of series [28]: Clearance in Sprague-Dawley rat at 2 mg/kg, iv measured upto 24 hrs by fluorescence based assay. It counts as ADME, organism-based. Particulars: in vivo.
Series [29] in a line: Cmax in Sprague-Dawley rat at 2 mg/kg, iv measured upto 24 hrs by fluorescence based assay. It counts as ADME, organism-based. More on the design: dose 2 mg/kg, route intravenous. Particulars: in vivo.
Series [30] deals with HT-29. The series can be described thus: Antitumor activity against human HT-29 cells xenografted in BALB/c mouse assessed as reduction in tumor growth at 2 mg/kg, iv after 2 hrs irradiated with light and measured on day 5. It counts as functional, organism-based.
The subject of series [31] is HT-29. The series can be described thus: Antitumor activity against human HT-29 cells xenografted in BALB/c mouse assessed as reduction in tumor volume at 2 mg/kg, iv after 2 hrs irradiated with light and measured on day 5. It counts as functional, organism-based. (Xenograft models place foreign cells or tissue in a host animal.)
In series [32] the test system is HT-29. Nature of the series: Antitumor activity against human HT-29 cells xenografted in BALB/c mouse assessed as reduction in tumor volume at 2 mg/kg, iv after 2 hrs irradiated with light and measured on day 24. It is filed as functional, organism-based.
Series [33] in a line: Toxicity in BALB/c mouse xenografted with human HT-29 cells assessed as damage on heart tissue at 2 mg/kg, iv after 2 hrs irradiated with light and measured on day 24. It is filed as organism-based. Particulars: in vivo.
The nature of series [34]: Toxicity in BALB/c mouse xenografted with human HT-29 cells assessed as damage on lung at 2 mg/kg, iv after 2 hrs irradiated with light and measured on day 24. It counts as organism-based. The settings on record: in vivo.
A short description of series [35]: Toxicity in BALB/c mouse xenografted with human HT-29 cells assessed as damage on liver at 2 mg/kg, iv after 2 hrs irradiated with light and measured on day 24. It is filed as organism-based. Particulars: in vivo.
The nature of series [36]: Toxicity in BALB/c mouse xenografted with human HT-29 cells assessed as damage in kidney at 2 mg/kg, iv after 2 hrs irradiated with light and measured on day 24. It is filed as organism-based. Particulars: in vivo.
The nature of series [37]: Toxicity in BALB/c mouse xenografted with human HT-29 cells assessed as damage in spleen at 2 mg/kg, iv after 2 hrs irradiated with light and measured on day 24. Particulars: in vivo. It counts as organism-based.

As usually defined, the IC50 is the concentration at which inhibition is half-maximal. As for `CCN(CC)c1ccc2nc3c(cc(N)c4nc(C)ccc43)[s+]c2c1.[Cl-]`, the Stability entry in series [1] is “Stable”. The Activity in [2] lay within 0.08 to 0.14. Further, the half-maximal inhibitory concentration (IC50) in [3] is 1800 nM; in series [4], 6500 nM; in series [5], 500 nM; in series [6] it was 1100 nM; in series [7] it was 210 nM; in series [8], 4600 nM. The entries for the “Ratio IC50” value in series [9], in [10] and in series [11] were 3.6, 2.2 and 21.9, respectively. The outcome in [12] and in [14] was Active. Moreover, the Drug uptake entry in [13] was “Active”.
Regarding `CCCCCCCNc1cc2[s+]c3cc(N(CC)CC)ccc3nc2c2ccc(C)nc12.[Cl-]`, the Stability result in series [1] is listed as “Stable”. Besides, the Activity in [2] lay within 0.08 to 0.14. The IC50 was 3700 nM in [3]; 17100 nM in [4]; 3800 nM in series [5]; 14400 nM in [6]; 1050 nM in [7]; 8890 nM in series [8]. The “Ratio IC50” value in series [9] is reported as 4.6; in [10], 3.8; in series [11], 8.47. The result in series [12] and in series [14] was Active. In addition, the Drug uptake result in series [13] is recorded as “Active”.
For the compound `CN(C)c1ccc2nc3ccc(N(C)C)cc3[s+]c2c1.[Cl-]` [METHYLENE BLUE ANHYDROUS], the values for the IC50 in series [7] and in series [8] were 9200 nM and more than 10000 nM, respectively. In addition, the Drug uptake result in [15] is “Active”.
The term AUC denotes concentration integrated over time. A low value points to less exposure. In general, MRT inf refers to a mean duration of stay, worked out from the concentration-time curve. As a reminder, the half-life is how long it takes for the measured level to halve. Read a high half-life as slow loss. The term clearance denotes the rate of elimination divided by the concentration. As a reminder, the Cmax is the highest concentration seen after dosing. As for `CCCNc1cc2[s+]c3cc(N(CC)CC)ccc3nc2c2ccc(C)nc12.[Cl-]`, the Stability entry in series [1] is on record as “Stable”. Also, the Activity was 0.08 to 0.14 in series [2]; “Non-Toxic” in [20]; “Non-Toxic” in [33]; “Non-Toxic” in series [34]; “Non-Toxic” in series [35]; “Non-Toxic” in [36]. For the same compound, the Activity entry in [37] is “Non-Toxic”. Moreover, the IC50 was 340 nM in series [3]; 3100 nM in series [4]; 370 nM in series [5]; 1900 nM in series [6]; 39 nM in [7]; 2100 nM in series [8]. The IC50 in [17] is more than 10000 nM. Further, the “Ratio IC50” value came out at 9.1 in [9], 5.1 in [10], 53.8 in series [11] and 235 in series [16]. Further, the Drug uptake result is “Active” in [18]; “Not Active” in series [15]; “Not Active” in series [21]; “Active” in series [22]; “Not Active” in series [23]; “Active” in [13]. The result in series [12], in series [19], in series [30], in series [31], in [32] and in series [14] was Active. This compound registered an AUCt in series [24] of 3.78 mg/h/L. Also, the AUC in series [25] turned out to be 4550 ng·h/mL. This compound had an MRT inf in series [26] of 12.4 h. For the same compound, the half-life in series [27] was 7.81 h. In addition, the clearance in [28] is 7.33 mL/min/kg. The Cmax in series [29] amounted to 2180 ng/mL.
